{
  "source": "patent US10293048B2",
  "about": "“Pharmaceutical compositions comprising boronic acid compounds” (DR. REDDY'S LABORATORIES LIMITED, priority 2012, dated 2019)",
  "origin": "cited, not measured here",
  "conditions": "1.3 mM in 2% ethyl alcohol/98% normal saline pH 2.8, 25° C., 14 days",
  "note": "Read-outs that look alike come from different tables or passages of the source.",
  "data": [
    {"smiles": "CC(C)C[C@H](NC(=O)[C@H](Cc1ccccc1)NC(=O)c1cnccn1)B(O)O", "note": "[bortezomib, [(1R)-3-methyl-1-[[(2S)-1-oxo-3-phenyl-2-[(pyrazinylcarbonyl)amino]propyl]amino]butyl]boronic acid]", "values": [
      {"measurement": "degradation", "setting": "containing 0.1% of ascorbic acid", "value": 21.8, "unit": "%"},
      {"measurement": "degradation", "setting": "no ascorbic acid", "value": 5.9, "unit": "%"}
    ]}
  ]
}
